Where no end group is shown, it is not given here.
What was measured:
Notch2NRR = experiment: Spot phage ELISA, Notch2NRR; type: binding, human; conditions: for S/N: spot phage ELISA on Notch2NRR, signal-to-noise ratio of phage-displayed DCP clone; for ELISA: spot phage ELISA signal of phage-displayed DCP clone on Notch2NRR
PCSK9ΔCRD (PCSK9dCRD) = type: binding, human; conditions: for S/N: ratio of signal for target protein over BSA background; for ELISA: spot phage ELISA signal, DCP displayed on M13 p8
Fz7CRD-Fc = type: binding; conditions: for S/N: ratio of signal for target protein over BSA background; for ELISA: spot phage ELISA signal, DCP displayed on M13 p8

Sequence: AFDCLGQCGRCDFHKLQCIWSNRNYPYCNSSCTR (disulfide (positions not given here)) [AVR9 3]
- S/N (Notch2NRR): 47.3
- ELISA (Notch2NRR): 3.31

Sequence: AFDCLGQCGRCDFHKLQCVFRSWQHYMYCNSSCTR (also: bicyclic or more (positions not given here)) [PCSK9dCRD AVR9 39]
- S/N (PCSK9ΔCRD (PCSK9dCRD)): 9.1
- ELISA (PCSK9ΔCRD (PCSK9dCRD)): 2.46

Sequence: AFDCLGQCGRCDFHKLQCVGKFRSFQDYQYCNSSCTR (also: bicyclic or more (positions not given here)) [PCSK9dCRD AVR9 18]
- S/N (PCSK9ΔCRD (PCSK9dCRD)): 28.6
- ELISA (PCSK9ΔCRD (PCSK9dCRD)): 2.52

Sequence: AFDCLGQCGRCDFHKLQCVHSNRNSFYCNSSCTR (disulfide (positions not given here)) [AVR9 7]
- S/N (Notch2NRR): 43.6
- ELISA (Notch2NRR): 3.23

Sequence: AFDCLGQCGRCDFHKLQCVNIEYYRDWDHYQYCNSSCTR (also: bicyclic or more (positions not given here)) [PCSK9dCRD AVR9 82]
- S/N (PCSK9ΔCRD (PCSK9dCRD)): 27.6
- ELISA (PCSK9ΔCRD (PCSK9dCRD)): 2.13

Sequence: AFDCLGQCGRCDFHKLQCVPYSWTYKQYCNSSCTR (disulfide (positions not given here)) [AVR9 9]
- S/N (Notch2NRR): 35.7
- ELISA (Notch2NRR): 2.57

Sequence: AFDCLGQCGRCDFHKLQCVSSNRNTPYCNSSCTR (disulfide (positions not given here)) [AVR9 5]
- S/N (Notch2NRR): 45.8
- ELISA (Notch2NRR): 3.31

Sequence: AFDCLGQCGRCDFHKLQCVVGWASMRNYCNSSCTR (disulfide (positions not given here)) [AVR9 8]
- S/N (Notch2NRR): 42.0
- ELISA (Notch2NRR): 3.14

Sequence: AFDCLGQCGRCDFHKLQCVWGNRNSSYCNSSCTR (disulfide (positions not given here)) [AVR9 6]
- S/N (Notch2NRR): 35.2
- ELISA (Notch2NRR): 3.28

Sequence: AFDCLGQCGRCDFHKLQCVWQTWQHYQYCNSSCTR (also: bicyclic or more (positions not given here)) [PCSK9dCRD AVR9 69]
- S/N (PCSK9ΔCRD (PCSK9dCRD)): 23.5
- ELISA (PCSK9ΔCRD (PCSK9dCRD)): 2.51

Sequence: AFDCLGQCGRCDFHKLQCVWQTWSAYLYCNSSCTR (also: bicyclic or more (positions not given here)) [PCSK9dCRD AVR9 80]
- S/N (PCSK9ΔCRD (PCSK9dCRD)): 2.9
- ELISA (PCSK9ΔCRD (PCSK9dCRD)): 2.10

Sequence: AFDCLGQCGRCDFHKLQCVWSNRHSPYCNSSCTR (disulfide (positions not given here)) [AVR9 4]
- S/N (Notch2NRR): 39.3
- ELISA (Notch2NRR): 3.31

Sequence: AFDCLGQCGRCDFHKLQCVWSNRNSLYCNSSCTR (disulfide (positions not given here)) [AVR9 1]
- S/N (Notch2NRR): 2.0
- ELISA (Notch2NRR): 3.42

Sequence: AFDCLGQCGRCDFHKLQCVWSNRNSPYCNSSCTR (disulfide (positions not given here)) [AVR9 2]
- S/N (Notch2NRR): 44.7
- ELISA (Notch2NRR): 3.32

Sequence: AFDCLGQCGRCDFHKLQCVWTSWGDYIKYGAYCNSSCTR (also: bicyclic or more (positions not given here)) [PCSK9dCRD AVR9 94]
- S/N (PCSK9ΔCRD (PCSK9dCRD)): 10.9
- ELISA (PCSK9ΔCRD (PCSK9dCRD)): 2.09

Sequence: AFDCLGQCGRCDFHKLQCVYESYAHYQYCNSSCTR (also: bicyclic or more (positions not given here)) [PCSK9dCRD AVR9 54]
- S/N (PCSK9ΔCRD (PCSK9dCRD)): 23.7
- ELISA (PCSK9ΔCRD (PCSK9dCRD)): 1.59

Sequence: AFDCLGQCGRCDFHKLQCVYKDWGHYLYCNSSCTR (also: bicyclic or more (positions not given here)) [PCSK9dCRD AVR9 34]
- S/N (PCSK9ΔCRD (PCSK9dCRD)): 24.0
- ELISA (PCSK9ΔCRD (PCSK9dCRD)): 1.80

Sequence: AFDCLGQCGRCDFHKLQCVYKTWQDYQYCNSSCTR (also: bicyclic or more (positions not given here)) [PCSK9dCRD AVR9 53]
- S/N (PCSK9ΔCRD (PCSK9dCRD)): 36.1
- ELISA (PCSK9ΔCRD (PCSK9dCRD)): 2.49

Sequence: AFDCLGQCGRCDFHKLQCVYQDWAHYVYCNSSCTR (also: bicyclic or more (positions not given here)) [PCSK9dCRD AVR9 44]
- S/N (PCSK9ΔCRD (PCSK9dCRD)): 27.7
- ELISA (PCSK9ΔCRD (PCSK9dCRD)): 2.19

Sequence: AFDCLGQCGRCDFHKLQCVYQSWDHYQYCNSSCTR (also: bicyclic or more (positions not given here)) [PCSK9dCRD AVR9 14]
- S/N (PCSK9ΔCRD (PCSK9dCRD)): 30.5
- ELISA (PCSK9ΔCRD (PCSK9dCRD)): 2.41

Sequence: AFDCLGQCGRCDFHKLQCVYRSWAHFQYCNSSCTR (also: bicyclic or more (positions not given here)) [PCSK9dCRD AVR9 11]
- S/N (PCSK9ΔCRD (PCSK9dCRD)): 18.5
- ELISA (PCSK9ΔCRD (PCSK9dCRD)): 2.52

Sequence: AFDCLGQCGRCDFHKLQCVYSSWAHYQYCNSSCTR (also: bicyclic or more (positions not given here)) [PCSK9dCRD AVR9 57]
- S/N (PCSK9ΔCRD (PCSK9dCRD)): 33.9
- ELISA (PCSK9ΔCRD (PCSK9dCRD)): 2.57

Sequence: AFDCLGQCGRCDFHKLQCVYTSWESYQYCNSSCTR (also: bicyclic or more (positions not given here)) [PCSK9dCRD AVR9 16]
- S/N (PCSK9ΔCRD (PCSK9dCRD)): 19.6
- ELISA (PCSK9ΔCRD (PCSK9dCRD)): 1.80

Sequence: AFDCLGQCGRCDFHKLQCVYTSWQHYQYCNSSCTR (also: bicyclic or more (positions not given here)) [PCSK9dCRD AVR9 58]
- S/N (PCSK9ΔCRD (PCSK9dCRD)): 35.3
- ELISA (PCSK9ΔCRD (PCSK9dCRD)): 2.67

Sequence: GCGYWYITWFCKQDSDCLAGCVCGPNGFCG (also: bicyclic or more (positions not given here)) [Fz7CRD-Fc EET I-II 30]
- S/N (Fz7CRD-Fc): 3.0
- ELISA (Fz7CRD-Fc): 2.64

Sequence: GCKLMRQRCKQDSDCLAGCVCTQQWWCG (disulfide (positions not given here)) [N2N-EET-94]
- S/N (Notch2NRR): 36.3
- ELISA (Notch2NRR): 3.52

Sequence: GCNGQRRPWGRWCKQDSDCLAGCVCGPNGFCG (disulfide (positions not given here)) [N2N-EET-33-P1]
- S/N (Notch2NRR): 11.9
- ELISA (Notch2NRR): 2.39

Sequence: GCTLMRTRCKQDSDCLAGCVCEHIYWCG (disulfide (positions not given here)) [N2N-EET-n19]
- S/N (Notch2NRR): 12.8
- ELISA (Notch2NRR): 3.16

Sequence: GCTLYMYLCKQDSDCLAGWMFHHCG [Fz7CRD-Fc EET I-II 26]
- S/N (Fz7CRD-Fc): 28.9
- ELISA (Fz7CRD-Fc): 1.79

Sequence: GCTLYMYLCKQDSDCLAGWMFHHCG [Fz7CRD-Fc EET I-II 55]
- S/N (Fz7CRD-Fc): 29.3
- ELISA (Fz7CRD-Fc): 2.81

Sequence: GCVHVIREWWCKQDSDSSWFVCGPNGFCG [Fz7CRD-Fc EET I-II 17]
- S/N (Fz7CRD-Fc): 26.4
- ELISA (Fz7CRD-Fc): 2.69

Sequence: GPTQSAFGECGGIGYSGPTVCASGTTCQVLSPMFSFCLPGAS (also: bicyclic or more (positions not given here)) [Fz7CRD-Fc CBD 57]
- S/N (Fz7CRD-Fc): 28.7
- ELISA (Fz7CRD-Fc): 2.41

Sequence: GPTQSAFGECGGIGYSGPTVCASGTTCQVLSPYWSFCLPGAS (also: bicyclic or more (positions not given here)) [Fz7CRD-Fc CBD 15]
- S/N (Fz7CRD-Fc): 38.4
- ELISA (Fz7CRD-Fc): 2.76

Sequence: GPTQSAGGWCGGIGYSGPTVCASGTTCQVLTPMESICLPGAS (also: bicyclic or more (positions not given here)) [Fz7CRD-Fc CBD 29]
- S/N (Fz7CRD-Fc): 5.7
- ELISA (Fz7CRD-Fc): 0.36

Sequence: GPTQSAWGWCGGIGYSGPTVCASGTTCQVLSPYESYCLPGAS (also: bicyclic or more (positions not given here)) [Fz7CRD-Fc CBD 53]
- S/N (Fz7CRD-Fc): 4.3
- ELISA (Fz7CRD-Fc): 0.32

Sequence: GPTQSHYGQCGGAGYWGRWICSGTTCQPLPQSKSQCLPGAS (disulfide (positions not given here)) [CBD 1]
- S/N (Notch2NRR): 38.2
- ELISA (Notch2NRR): 3.79

Sequence: GPTQSHYGQCGGEGYWGRWICSGTTCQPYNTHFSQCLPGAS (disulfide (positions not given here)) [CBD 2]
- S/N (Notch2NRR): 28.5
- ELISA (Notch2NRR): 3.05

Sequence: GPTQSHYGQCGGFGYWGMRHCSGTTCQWQHLPSQ CLPGAS (disulfide) [CBD 3]
- S/N (Notch2NRR): 36.6
- ELISA (Notch2NRR): 3.00

Sequence: GPTQSHYGQCGGQGYWGMRHCSGTTCQWGAKGPSQCLPGAS (disulfide (positions not given here)) [CBD 4]
- S/N (Notch2NRR): 33.1
- ELISA (Notch2NRR): 3.68

Sequence: GPTQSHYGQCGGTGYWGMRNCSGTTCQRFAPQNSQCLPGAS (disulfide (positions not given here)) [CBD 5]
- S/N (Notch2NRR): 47.2
- ELISA (Notch2NRR): 3.59

Sequence: GPTQSIWGECGGIGYSGPTVCASGTTCQVLTPFYSFCLPGAS (also: bicyclic or more (positions not given here)) [Fz7CRD-Fc CBD 14]
- S/N (Fz7CRD-Fc): 15.7
- ELISA (Fz7CRD-Fc): 1.18

Sequence: GPTQSKYGVCGGIGYSGPTVCASGTTCQVLYPGYSLCLPGAS (also: bicyclic or more (positions not given here)) [Fz7CRD-Fc CBD 72]
- S/N (Fz7CRD-Fc): 37.9
- ELISA (Fz7CRD-Fc): 2.80

Sequence: GPTQSLWGECGGIGYSGPTVCASGTTCQVLSPEYSFCLPGAS (also: bicyclic or more (positions not given here)) [Fz7CRD-Fc CBD 18]
- S/N (Fz7CRD-Fc): 16.4
- ELISA (Fz7CRD-Fc): 1.75

Sequence: GPTQSMFGECGGIGYSGPTVCASGTTCQVLSPFYSFCLPGAS (also: bicyclic or more (positions not given here)) [Fz7CRD-Fc CBD 47]
- S/N (Fz7CRD-Fc): 30.4
- ELISA (Fz7CRD-Fc): 2.59

Sequence: GPTQSMWGECGGIGYSGPTVCASGTTCQVLSPFYSFCLPGAS (also: bicyclic or more (positions not given here)) [Fz7CRD-Fc CBD 56]
- S/N (Fz7CRD-Fc): 3.7
- ELISA (Fz7CRD-Fc): 0.27

Sequence: GPTQSVGGNCGGIGYSGPTVCASGTTCQVLSPNFSICLPGAS (also: bicyclic or more (positions not given here)) [PCSK9dCRD CBD 49]
- S/N (PCSK9ΔCRD (PCSK9dCRD)): 37.1
- ELISA (PCSK9ΔCRD (PCSK9dCRD)): 2.38

Sequence: GPTQSVGGVCGGIGYSGPTVCASGTTCQVLSPKTSICLPGAS (also: bicyclic or more (positions not given here)) [PCSK9dCRD CBD 40]
- S/N (PCSK9ΔCRD (PCSK9dCRD)): 27.5
- ELISA (PCSK9ΔCRD (PCSK9dCRD)): 2.39

Sequence: GPTQSVYGYCGGIGYSGPTVCASGTTCQVLFPGHSFCLPGAS (also: bicyclic or more (positions not given here)) [Fz7CRD-Fc CBD 23]
- S/N (Fz7CRD-Fc): 20.9
- ELISA (Fz7CRD-Fc): 2.78

Sequence: GPTQSWFGQCGGIGYSGPTVCASGTTCQVLVPDMSFCLPGAS (also: bicyclic or more (positions not given here)) [Fz7CRD-Fc CBD 87]
- S/N (Fz7CRD-Fc): 32.0
- ELISA (Fz7CRD-Fc): 2.66

Reference: paper PMC10977697 (PLOS ONE, 2024)
